#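 A five-concentration, 48-hour dose response in 96-well plates underlies each endpoint, interpolated linearly between surrounding concentrations. The concentration for 50% growth inhibition is given as GI50.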 Calls of active or inactive are those of the source. No stated cut-off is given here; in the data, active = GI50 up to about 1.1 µM and inactive = higher.
# Columns and labels:
# Assay in all cases: NCI tumour cell line growth inhibition, 48 h
# [1] = test system: 786-0
# [2] = test system: ACHN
# [3] = test system: CCRF-CEM
# [4] = test system: HCC 2998
# [5] = test system: HCT-116
# [6] = test system: K562
# [7] = test system: KM12
# [8] = test system: MOLT-4
# [9] = test system: NCI-H23
# [10] = test system: OVCAR-8
# [11] = test system: SF-268
# [12] = test system: SN12C
# [13] = test system: UO-31
# [14] = test system: HCT-15
# [15] = test system: LOX IMVI
# [16] = test system: NCI-H226
# [17] = test system: SNB-75
Compound,GI50 [1],GI50 [2],GI50 [3],GI50 [4],GI50 [5],GI50 [6],GI50 [7],GI50 [8],GI50 [9],GI50 [10],GI50 [11],GI50 [12],GI50 [13],GI50 [14],GI50 [15],GI50 [16],GI50 [17]
CC(C)c1cccc(C(C)C)c1NC(=O)/C(Cc1nc2ccc(Cl)cc2nc1O)=N\NC(=O)C[N+](C)(C)C,> 100 µM (inactive),> 100 µM (inactive),> 100 µM (inactive),> 100 µM (inactive),> 100 µM (inactive),> 100 µM (inactive),> 100 µM (inactive),> 100 µM (inactive),> 100 µM (inactive),> 100 µM (inactive),> 100 µM (inactive),> 100 µM (inactive),76.7 µM (inactive),–,–,–,–
COc1cc(Br)c(/C=N\c2cccc3ccc(OS(=O)(=O)c4cccc([N+](=O)[O-])c4)cc23)cc1OC,25.4 µM (inactive),32.8 µM (inactive),12.2 µM (inactive),> 100 µM (inactive),30.5 µM (inactive),21.1 µM (inactive),30.7 µM (inactive),8.18 µM (inactive),12.5 µM (inactive),24 µM (inactive),19.4 µM (inactive),33.9 µM (inactive),20.1 µM (inactive),24.5 µM,29.8 µM (inactive),20.4 µM (inactive),–
O=c1[nH]ccc(CNC23CC4CC(CC(C4)C2)C3)c1O,> 100 µM (inactive),93.5 µM (inactive),41.5 µM (inactive),> 100 µM (inactive),> 100 µM (inactive),88.3 µM (inactive),> 100 µM (inactive),55.7 µM (inactive),> 100 µM (inactive),> 100 µM (inactive),–,45.8 µM (inactive),88.3 µM (inactive),41.8 µM,–,> 100 µM (inactive),> 100 µM (inactive)
O=C1CCC2(c3ccccc3)Nc3ccccc3N12 (stereo not given),> 100 µM (inactive),> 100 µM (inactive),> 100 µM (inactive),> 100 µM (inactive),–,> 100 µM (inactive),> 100 µM (inactive),> 100 µM (inactive),> 100 µM (inactive),> 100 µM (inactive),> 100 µM (inactive),> 100 µM (inactive),> 100 µM (inactive),> 100 µM,> 100 µM (inactive),> 100 µM (inactive),> 100 µM (inactive)

# From ChEMBL document CHEMBL1201862, “PubChem BioAssay data set” (2004)
